Assay results taken from patent EP1571449A1 (priority 2004, dated 2005).
Read-outs that look alike come from different tables or passages of the source.

Assays:
PrP^C = PrP^C (Homo sapiens, UniProt P04156); type: binding
plasma PrP^C = plasma PrP^C (Homo sapiens, UniProt P04156); conditions: plasma mixed with 400 µM CuCl2, copper containing gradient, 16 h at 100,000 x g, 4 °C

In the case of `[Cl][Cu][Cl]` [CuCl2], the “PrP^C detection, assay 2” value (PrP^C) is reported as “much more improved detection of PrP^C”, the “PrP^C detection, assay 3” value (PrP^C) is reported as “slightly worse detection of PrP^C as compared to assay 2” and the “effect on detection of bound prion proteins (assay sensitivity)” value (PrP^C; 15 min) is reported as “improvement in sensitivity”. For the same compound, the “migration pattern of PrP^C immunoreactivity in sucrose gradient” value (plasma PrP^C) was “the high molecular weight peak, present in EDTA plasma, disappeared”.
With `O=S(=O)([O-])[O-].[Cu+2]` [CuSO4] the “dose relation of the effect on assay sensitivity” value (PrP^C) was “dose-related effects on the assay sensitivity”, the “effect on detection of bound prion proteins (assay sensitivity)” value (PrP^C) was “improvement in sensitivity” and the increase in sensitivity (PrP^C) was “more than 3000 fold”. For the same compound, the “plasma dilution at which twice the backgound signal was detected” value (PrP^C) was 156250 times diluted.
With `O=C(O)CN(CCN(CC(=O)O)CC(=O)O)CC(=O)O` [EDTA, reference compound] the “PrP^C detection, assay 4” value (PrP^C) was “blocking effects”, the “PrP^C detection, assay 5” value (PrP^C) was “complete inhibition of the copper effects” and the “PrP^C detection, assay 6” value (PrP^C) was “the copper-induced changes of PrP^C disappeared”. For the same compound, the “PrP^C detection, assay 7” value (PrP^C) was “improved detection of PrP^C was observed” and the “effect of EDTA on the copper-induced assay sensitivity increase” value (PrP^C) was “dose-related reduction of copper-induced assay sensitivity increase”.
With `OO` [H2O2, hydrogen peroxide] the “dose relation of the effect on assay sensitivity” value (PrP^C) was “dose-related effects on the assay sensitivity” and the “effect on detection of bound prion proteins (assay sensitivity)” value (PrP^C) was “enhanced the detection of bound prion proteins”.
With `[Cl][Mn][Cl]` [MnCl2] the “effect on detection of bound prion proteins (assay sensitivity)” value (PrP^C) was “improvement in sensitivity” and the “times higher concentration needed for the same signal increasing effect as compared to zinc” value (PrP^C) was “about 12 times”.
`O=S(=O)([O-])[O-].[Zn+2]` [ZnSO4] was tested, and the “effect on detection of bound prion proteins (assay sensitivity)” value (PrP^C) was “improvement in sensitivity”.
For `O=CO` [formic acid], the “effect on detection of bound prion proteins (assay sensitivity)” value (PrP^C) was “had no effect on the assay”.
